Test results reported in patent US7157494B2, “Dimeric compounds and their use as anti-viral agents” (priority 2001, dated 2007).
≈ marks a conversion by molar mass, not a printed value.

Tests used:
Influenza A/Sydney/5/97 = assay type: cell-based; conditions: concentration that inhibited CPE by 50%; MDCK cells, up to 72 hours, MTT
Influenza B/Harbin/7/95 = assay type: cell-based; conditions: concentration that inhibited CPE by 50%; MDCK cells, up to 72 hours, MTT
B/Hong Kong/5/72 BVLV012 = test: Plaque reduction assay (PRA) in MDCK cells; assay type: cell-based, influenza B; conditions: Influenza B virus, MDCK; reduces plaque numbers by 50%; B/Hong Kong/5/72; read-out: EC50 PRA B/HongK
Description: (§1) Madin Darby Canine Kidney (MDCK) cells are seeded into six well tissue culture plates and grown to confluency via standard methods. Influenza viruses are diluted in a minimal volume of phosphate buffered saline supplemented with 0.2% bovine serum albumin to yield an estimated titre of 50–100 plaque forming units (pfu) per well. After adsorption to the MDCK cells for one hour at 37° C. in a 5% CO2 atmosphere the viral inocula is aspirated and replaced with viral growth media (minimal Eagle's media supplemented with BSA, trypsin and insulin/transferrin/selenium at optimal concentrations) containing sufficient agar or agarose (generally 1–2%) to cause the media to gel at room temperature and at 37° C. in a 5% CO2 atmosphere until plaques develop (generally 2–4 days). Plaques can be visualised with a suitable stain (e.g. 0.4% crystal violet in formal saline) before counting.

[1] = test system: B/Yamanashi/166/98 BVLV007; test: Plaque reduction assay (PRA) in MDCK cells; assay type: cell-based, influenza B; conditions: Influenza B virus, MDCK, reduces plaque numbers by 50%; B/Yamanashi/166/98; read-out: EC50 PRA B/Yam
Description: as §1

[2] = test system: A/New Caledonia/20/99 BVLV008 (H1N1); test: Plaque reduction assay (PRA) in MDCK cells; assay type: cell-based, influenza A H1N1; conditions: Influenza A virus, H1N1, MDCK, reduces plaque numbers by 50%; A/New Caledonia/20/99 (H1N1)
Description: as §1

[3] = test system: A/Victoria/3/75 BVLV017 (H3N2); test: Plaque reduction assay (PRA) in MDCK cells; assay type: cell-based, influenza A H3N2; conditions: Influenza A virus, MDCK; reduces plaque numbers by 50%; A/Victoria/3/75 (H3N2); read-out: EC50 PRA A/Vic
Description: as §1

[4] = test system: A/Panama/2007/99 BVLV008 (H3N2); test: Plaque reduction assay (PRA) in MDCK cells; assay type: cell-based, influenza A H3N2; conditions: Influenza A virus, H3N2, MDCK, reduces plaque numbers by 50%; A/Panama/2007/99 (H3N2); read-out: EC50 PRA A/Pan
Description: as §1

CC(=O)N[C@H]1[C@H]([C@H](OC(=O)NCCCCCCNC(=O)c2cccc(C(=O)NCCCCCCNC(=O)O[C@@H]([C@@H]3OC(C(=O)O)=C[C@H](NC(=N)N)[C@H]3NC(C)=O)[C@H](O)CO)c2)[C@H](O)CO)OC(C(=O)O)=C[C@@H]1NC(=N)N [Compound 8]
ID50 A/Sydney/5/97 (Influenza A/Sydney/5/97): 0.4 ng/mL (≈ 0.371 nM) | ID50 B/Harbin/7/95 (Influenza B/Harbin/7/95): 0.9 ng/mL (≈ 0.834 nM)

CC(=O)N[C@H]1[C@H]([C@H](OC(=O)NCCCNC(=O)c2ccccc2C(=O)NCCCNC(=O)O[C@@H]([C@@H]2OC(C(=O)O)=C[C@H](NC(=N)N)[C@H]2NC(C)=O)[C@H](O)CO)[C@H](O)CO)OC(C(=O)O)=C[C@@H]1NC(=N)N [Compound 12]
ID50 A/Sydney/5/97 (Influenza A/Sydney/5/97): >100 ng/mL | ID50 B/Harbin/7/95 (Influenza B/Harbin/7/95): 0.1 ng/mL (≈ 0.101 nM)

NC12CC3CC(CC(C3)C1)C2 [Amantadine]
EC50 (B/Hong Kong/5/72 BVLV012): > 10000 ng/mL | EC50 [1]: 2060 ng/mL (≈ 13600 nM) | EC50 [2]: 11 ng/mL (≈ 72.7 nM) | EC50 [3]: 220 ng/mL (≈ 1450 nM) | EC50 [4]: 157 ng/mL (≈ 1040 nM)

CC(=O)N[C@H]1[C@H]([C@H](OC(=O)NCCCNC(=O)Cc2ccc(CC(=O)NCCCNC(=O)O[C@@H]([C@@H]3OC(C(=O)O)=C[C@H](NC(=N)N)[C@H]3NC(C)=O)[C@H](O)CO)cc2)[C@H](O)CO)OC(C(=O)O)=C[C@@H]1NC(=N)N [Compound 13]
ID50 A/Sydney/5/97 (Influenza A/Sydney/5/97): 0.1 ng/mL (≈ 0.0977 nM) | ID50 B/Harbin/7/95 (Influenza B/Harbin/7/95): 0.3 ng/mL (≈ 0.293 nM)

CC(=O)N[C@H]1[C@H]([C@H](OC(=O)NCCCCCCNC(=O)c2ccc(C(=O)NCCCCCCNC(=O)O[C@@H]([C@@H]3OC(C(=O)O)=C[C@H](NC(=N)N)[C@H]3NC(C)=O)[C@H](O)CO)cc2)[C@H](O)CO)OC(C(=O)O)=C[C@@H]1NC(=N)N [Compound 6]
ID50 A/Sydney/5/97 (Influenza A/Sydney/5/97): 0.2 ng/mL (≈ 0.185 nM) | ID50 B/Harbin/7/95 (Influenza B/Harbin/7/95): 0.9 ng/mL (≈ 0.834 nM)

CC(=O)N[C@H]1[C@H]([C@H](OC(=O)NCCCNC(=O)c2cccc(C(=O)NCCCNC(=O)O[C@@H]([C@@H]3OC(C(=O)O)=C[C@H](NC(=N)N)[C@H]3NC(C)=O)[C@H](O)CO)c2)[C@H](O)CO)OC(C(=O)O)=C[C@@H]1NC(=N)N [Compound 11]
ID50 A/Sydney/5/97 (Influenza A/Sydney/5/97): 0.1 ng/mL (≈ 0.101 nM) | ID50 B/Harbin/7/95 (Influenza B/Harbin/7/95): 0.1 ng/mL (≈ 0.101 nM)

CC(=O)N[C@H]1[C@H]([C@H](OC(=O)NCCCCCCNC(=O)c2ccccc2C(=O)NCCCCCCNC(=O)O[C@@H]([C@@H]2OC(C(=O)O)=C[C@H](NC(=N)N)[C@H]2NC(C)=O)[C@H](O)CO)[C@H](O)CO)OC(C(=O)O)=C[C@@H]1NC(=N)N [Compound 7]
ID50 A/Sydney/5/97 (Influenza A/Sydney/5/97): 0.7 ng/mL (≈ 0.649 nM) | ID50 B/Harbin/7/95 (Influenza B/Harbin/7/95): 0.8 ng/mL (≈ 0.741 nM)
